According to EP4069710B1, “PD(I) COMPLEXES, PROCESS FOR THEIR PREPARATION AND USE THEREOF AS ANTITUMOUR AGENTS” (Universita' Ca' Foscari Venezia, priority 2019, dated 2021):

What was measured:
Format in all cases: cell-based
[1] = system: DLD1; experiment: Antiproliferative activity, cell viability by CellTiter-Glo after 96 hours; settings: DLD1 (colon cancer), mean ± standard deviation of triplicate measurements
Protocol: (§1) Tecan analyser, mod. Infinite® M1000.
(§2) Tests were performed for the purpose of determining the inhibitory concentration (IC50) of a compound of the invention towards tumour cell lines and on a control cell line; for comparative purposes, the same tests were performed with the cisplatin compound.
(§3) The tested cell lines were: A2780, A2780cis, OVCAR5, OVCAR3 e KURAMOCHI (ovarian cancer), A549 (lung cancer), HeLa (cervical cancer), DLD1 (colon cancer) and MRC-5 (control; lung fibroblasts). The mother solutions were obtained in dimethyl sulfoxide for the Pd(I) compound and in H2O for cisplatin.
(§4) The cells were kept, according to the protocols indicated by the suppliers, at 37 °C in an atmosphere containing 5% carbon dioxide. About 500 cells were plated on 96 different well-plates and kept under such conditions for 96 hours.
(§5) The viability of the cells was determined, after treatment of the cells with a 1:1 CellTiter-Glo® solution (registered trademark of Promega Corp., Madison, Wisconsin, USA) and DPBS, with the Tecan Infinite® M1000 instrument. The IC50 values were calculated by the response curves to the dose. The means and standard deviations were obtained from triplicate measurements.

[2] = system: OVCAR5; experiment: as above; settings: OVCAR5 (ovarian cancer), mean ± standard deviation of triplicate measurements
Protocol: as §1, §2, §3, §4, §5

[3] = system: Kuramochi; experiment: as above; settings: Kuramochi (ovarian cancer), mean ± standard deviation of triplicate measurements
Protocol: as §1, §2, §3, §4, §5

[4] = system: A2780cis; experiment: as above; settings: A2780cis (ovarian cancer), mean ± standard deviation of triplicate measurements
Protocol: as §1, §2, §3, §4, §5

[5] = system: OVCAR3; experiment: as above; settings: OVCAR3 (ovarian cancer), mean ± standard deviation of triplicate measurements
Protocol: as §1, §2, §3, §4, §5

[6] = system: MRC-5; experiment: Antiproliferative activity on control cell line, cell viability by CellTiter-Glo after 96 hours; settings: MRC-5 (control; lung fibroblasts), mean ± standard deviation of triplicate measurements
Protocol: as §1, §2, §3, §4, §5

## N.N.[Cl][Pt][Cl] [Cisplatin, cis-diamine-dichloroplatinum(II)]
[1]
  IC50: 4.2 ± 0.5 µM
[2]
  IC50: 5.2 ± 0.8 µM
[3]
  IC50: 1.7 ± 0.3 µM
[4]
  IC50: 43 ± 3 µM
[5]
  IC50: 2.2 ± 0.1 µM
[6]
  IC50: 14 ± 1 µM
